Here are results for one compound from patent US20230301890A1, “COMPOSITIONS COMPRISING UROLITHINS” (Amazentis SA, priority 2022, published 2023).

Entries after “also recorded” stand apart in the source; their conditions may differ.

One assay deals with facial wrinkles. Put plainly: Aging study 1: wrinkle analysis of Colorface images. It counts as in vivo, human. An excerpt: The effect of the test product on the skin barrier function will be assessed by transepidermal […] (TEWL) at the beginning as well as after 2 weeks and after 8 weeks of product application. Furthermore, effects on the facial skin on skin hydration (by Corneometer), skin elasticity and firmness (by Cutometer) and skin color (by Spectrophotometer) will be investigated. Additionally, skin layer thickness and undulation index of the dermal epidermal junction (DEJ) will be measured by line-field confocal optical coherence tomography (LC-OCT). Images for wrinkle analysis and for documentation purpose will be taken with Colorface. A questionnaire regarding product traits will be filled in after 2 weeks of product application and at the end of the study.
The following efficacy assessment(s) will be performed: • Biomarker analysis of 3 mm punch-biopsies on 30 subjects (15 subjects per group) by Sponsor/3rd party • Transepidermal Water Loss (TEWL) by Tewameter [g/(m2h)j • Skin Hydration—Skin Capacitance by Corneometer [a.u.j] (see FIG. 8) • Skin Color by Spectrophotometer • Skin Firmness—R0 (Uf) by Cutometer [mm] • Skin Elasticity—R7 (Ur/Uf) by Cutometer • Image analysis by line-field confocal optical coherence tomography (LC-OCT) by Damae**: • (a) Skin layer thickness (epidermis and stratum corneum) • (b) Undulation index of the dermal epidermal junction (DEJ) • Image analysis of Colorface Images by Newtone • (a) analysis of wrinkles and fine lines (see FIG. 7) • (b) creation of average face • Questionnaire of product traits • upon decision of the sponsor, depending on the results of the other instrumental measurements analysis will be done on either one group at three timepoints, or on two groups at two timepoints
COLORFACE® PHOTOBOX (Newtone Technologies, Lyon, France): Colorface® is used for standardized, computer-controlled facial photography. It is equipped with a 24 Mpixel Nikon camera and a various range of LED-flashes at fixed positions in the booth. Illumination of the face is done with • ? standard flashes • ? parallel-polarized light • ? cross-polarized light • □ UV flashes to obtain fluorescent images. The acquisition software for Colorface is used as image database, but also defines the settings for the respective study. All settings are fixed so that unwanted changes of image capture parameters can be avoided. The instrument enables facial photography of high quality and same illumination at different assessment times. Images of the following position of the face will be taken: • ? front • ? right • ? left • 1 single image per setting, face position and assessment time • Data will be stored in the Newtone Imaging access cloud • Images will be provided to the sponsor in an anonymized way (e.g., black bar covering eyes) if possible.
Crow's Feet Analysis: • Parameter: Visible length, Visible surface, Visible depth and Visible volume • Illumination: STD60 • View: profile: right and left • Area: Crow's Feet

For the next assay, the system named is UVB induced erythema. As to the kind of experiment: Clinical trial: UVB induced erythema, Chromameter a*. It counts as in vivo, human. As to the method:
A sunburn of 1.25 minimal erythemal dose (MED) was evoked on one set of test areas and 1.6 MED on the other set of test areas by irradiation with a sun simulator. On 3 test areas of each set products was applied 24 hours before irradiation, on 3 other test areas of each set products was applied immediately after irradiation. An irradiated but untreated test area served as a control. The effect of the test products was assessed by visual evaluation of erythema and instrumental color measurements by Chromameter before and after irradiation. The study was reviewed by an independent institutional review board (IRB) for ethical approval.
The following efficacy assessment(s) will be performed: • Erythema (a*) by Chromameter (See FIG. 10) • Visual erythema evaluation (trained grader)
The following instrumental measurement(s) will be performed: • CHROMAMETER CR 400 (Minolta, Device D-Langenhagen, Germany): Skin color can objectively be quantified by reflectance measurements with a tri-stimulus Chromameter. The measuring principle is based on the reflection of a Xenon flash that diffusely lightens the skin on an area of 8 mm in diameter. The vertically reflected light from the skin is then detected by high-sensitive silica photodiodes that provide a color analysis of the detected light. The Chromameter defines the measured color in the L*a*b* color coordinate system. The L*-value defines the brightness. The color is defined by the parameters a* (red-green axis; negative a*-value green, positive a*-value red) and b* (blue-yellow axis, negative b*-value blue, positive b*-value yellow). The a* value correlates well with visual assessments of skin redness (erythema), a* is a measure for erythema. […]

For assay [1], the system named is reconstructed human epidermis (RHE). Put plainly: PGE2 release in reconstituted human epidermis under UV stimulation. In kind it is cell-based. The conditions noted are these: UVB (+UVA) irradiated RHE. As to the method:
Ten-day-old reconstructed human epidermis (RHE) were placed in maintenance medium. The RHE were topically treated with or without moisturizing creams containing different concentration of Urolithin A active and incubated for 24 hours. The RHE were then rinsed in PBS and irradiated with UVB (+UVA)—850 mJ/cm^2 (+6 J/cm^2) using a SOL500 Sun Simulator equipped with an H2 filter (Dr. Hönle, AG). After irradiation, the treatments were renewed and the RHE were incubated for 24 hours. In parallel, non-irradiated conditions were performed and kept in the dark during the irradiation time. All experimental conditions were performed in n=3. PGE2 released in the culture supernatants was measured using a specific ELISA kit according to the supplier's instructions (Enzo Life Sciences, ref. ADI-900-001). Statistical analysis performed by One-Way Anova.

As to `O=c1oc2cc(O)ccc2c2ccc(O)cc12` [Urolithin A], the wrinkle depth result with facial wrinkles (0.5% Urolithin A skin cream, vs placebo) is “no impact”; in the assay with facial wrinkles (0.5% Urolithin A skin cream, vs placebo, listed as UA) it was “did not showed any significant effect”; in the assay on facial wrinkles (0.5% Urolithin A skin cream, vs placebo, listed as urolithin A) it was “Lack of anti-wrinkle effect”; in the assay on facial wrinkles (1% Urolithin A skin cream, 8 weeks twice daily, vs placebo treated side) it was “significant impact on reducing wrinkle depth”; in the assay on facial wrinkles (1% Urolithin A skin cream, 8 weeks twice daily, vs placebo treated side, listed as UA) it was “significant anti-wrinkle effects; also recorded: significant reduction”; with facial wrinkles (1% Urolithin A skin cream, 8 weeks twice daily, vs placebo treated side, listed as urolithin A) it was “Reduction; also recorded: Anti-wrinkle effect”. Further, in the assay on facial wrinkles (cream containing Urolithin A at 1% alone), the reduction in wrinkles is on record as 4-6%. In the assay on UVB induced erythema (skin cream with 1% Urolithin A, 1.6 MED UVB, 24 hours after irradiation), the “skin redness, erythema (a*) by Chromameter vs untreated area” value is listed as “reduction; also recorded: significantly less skin redness”. Moreover, the “reduction of skin redness/erythema” value in the assay on UVB induced erythema (skin cream with 1% Urolithin A, 1.6 MED UVB, vs untreated area) was “approximately 14.3%”. For the same compound, the skin redness/erythema entry in the assay on UVB induced erythema (skin cream with Urolithin A at 0.5%) was “did not show any significant effect”. The “PGE2 secretion compared to irradiated skin treated with basic cream formulation without UA” value in assay [1] (all UA concentrations tested) was “significantly reduces PGE2 secretion”. For the same compound, in assay [1] (cream with UA at 0.5%, 1% and 2%, supernatant ELISA), the “PGE2 secretion compared to irradiated non-treated skin” value was “significantly reduces PGE2 secretion”.
